Laboratory results: patent US8491897B2, “Treatment of neuropathic pain using anti-thrombospondin antibodies” (The Board of Trustees of the Leland Stanford Junior …, priority 2007, dated 2013)
Entries after “also recorded” stand apart in the source; their conditions may differ.

Assays:
[1] = test system: glutamatergic excitatory synapses in the cortex; test: Synapse assay on mouse brain sections (VGlut2/PSD95 co-localized puncta in cortex) after GBP injection; type: in vivo, mice
Experimental: To determine whether GBP similarly blocks synapse formation in vivo, neonatal mice were injected with either GBP or saline, for the first postnatal week, which coincides with the initiation of synapse formation in the brain (see Experimental Procedures). […] At this age P7 glutamatergic synapses in the cortex are predominantly VGlut2 positive (Miyazaki et al., The Eur. J. of Neuroscience, 17:2563-2572, 2003). Therefore, co-immunostaining of sagital brain sections from (P7) saline or GBP-injected, mice was carried out with antibodies against VGlut2 and PSD95 and the number of co-localized pre- and post-synaptic puncta was quantified to determine synaptic density in the cortex of these mice. […] This difference was mainly due to a severe decrease in synapse number in half of the GBP injected animals. […] GBP injection affected both VGlut2 and PSD95 puncta by reducing their number, size, and co-localization (FIG. 7E) similar to its effect on synaptic puncta in vitro (FIG. 7A). […] It is interesting that the effect of GBP in vivo is an “all or none” effect rather than a gradual decrease in synapse number, and that only 50% of the mice responded to GBP injection. This could be due to a critical threshold concentration of GBP necessary to be effective in blocking synapse formation, which might only be achieved in some of the mice. In three repeated experiments, however, we observed only half of the mice were affected by GBP, even when we increased the total dosage and frequency from once a day to three times per day (see below and Experimental Procedures), and even though an inbred strain of mice was used.
Brains were immersed in 4% paraformaldehyde (PFA), fixed overnight at 4° C., and cryo-protected in 30% sucrose. For synaptic staining, tissue was embedded in a 2:1 mixture of 20% sucrose:OCT in PBS, and cryo-sectioned (12 μm). Sections were dried at 37° C., washed three times in PBS, and blocked with 20% normal goat serum (NGS, Invitrogen) in PBS 1 hr. Primary antibodies were diluted in PBS with 0.3% triton and 10% NGS as follows: PSD95 (Zymed, rabbit, 1:500) and VGlut1 and VGlut2 (Chemicon, guinea pig, 1:2500) incubated overnight at 4° C. […]
Three independent sagital brain sections per animal were stained with pre- and post-synaptic markers and 5 μm confocal scans were performed (optical section width 0.38 μm, 14 optical sections each) at the cortex. […] Merged single optical section images at 1 μm intervals were analyzed using the ImageJ-puncta analyzer option to count for number of co-localized pre- and post-synaptic puncta (5 optical sections per brain section and 15 total images per brain). Average synaptic density per imaged area was calculated for each condition. […]

[2] = test system: RGCs; test: RGC neurite outgrowth; conditions: data not shown
[3] = test system: naive rats; test: TSP4-induced behavioral hypersensitivity in naive rats (paw withdrawal threshold, von Frey); type: in vivo, rat; conditions: 1 mg/rat bolus i.t., three days after TSP4 (45 ug/rat)

**Q.** What does the source list for NCC1(CC(=O)O)CCCCC1 [Gabapentin, 1-(aminomethyl)cyclohexaneacetic acid]?
**A.** proportion of injected mice that responded (severe reduction of synaptic puncta) ([1]; P7 mice): 50%; density of VGlut2/PSD95 excitatory synapses in the cerebral cortex ([1]; P7 mice injected i.p. daily in first postnatal week, vs saline, listed as GBP): significant decrease in the density of excitatory synapses; also recorded: significant decrease in the number of VGlut2-PSD95 synapses; VGlut2/PSD95 synaptic density relative to saline injected values ([1]; in the half of the mice that responded): less than 10%; number of neurons ([1]; responding mice): no apparent effect on the number of neurons; neurite outgrowth [2]: did not affect neurite outgrowth; effect on TSP4-induced behavioral hypersensitivity [3]: blocked the pain-inducing effects of TSP4
